According to article PMC12790326, “Water Networks as Hydrophobic Recognition Motifs in Proteins” (Angewandte Chemie (International Ed. in English), 2025):

Columns and labels:
BRD4(1) = target: T1, BRD4(1) (Homo sapiens, UniProt O60885); assay: TR-FRET binding assay: displacement of tetra-acetylated histone H4 peptide; settings: for loss of efficacy/affinity with respect to 1: TR-FRET; for IC50: displacement of tetra-acetylated H4 peptide from BRD4(1), duplicate, best fit; for TR-FRET IC50 (fold change): fold change of IC50 relative to compound 1
T1 construct: encodes residues 44-168; His6 (TEV-cleavable); made in house; host or cells: Escherichia coli BL21 (DE3)
Description: Supplementary Information
Figure S3: Normalized TR-FRET assay showing dose-dependently displacement of a tetra-acetylated H4 peptide from Brd4(BD1) in the presence of compounds 2-5. IC50 values corresponding to best fit are reported inside each graph. […]
simultaneously. Each dot represents the average of two independent replicas, and the error bars correspond to their standard deviation.
The BRD4(1) construct was a kind donation of Dr. Alessio Ciulli (University of Dundee, UK) and it encodes residues 44-168. The cloned his-tagged BRD4(1) was expressed in Escherichia coli BL21 (DE3).
For biophysical assays, the protein puriﬁcation procedure consisted of immobilised metal ion aﬃnity chromatography (IMAC), followed by TEV cleavage of the histidine tag and a second IMAC chromatography. For crystallisation assays, the puriﬁcation protocol involved IMAC chromatography, followed by TEV cleavage and size-exclusion chromatography for crystallography. The expression and puriﬁcation has already been described.[25]
The Time-Resolved Fluorescence Resonance Energy Transfer (TR-FRET) binding assay used to measure the disruption of the interaction of BRD4(1) with [Lys(Ac)5/8/12/16]-Histone H4 (1-21)-GGK(Biotin) (Eurogentec) with compounds 1-5, was performed according to a previously described protocol.[26] The experiments were performed in 384-well black plates (NUNC) in a buﬀer composed of 50 mM HEPES, pH 7.4, 50 mM NaCl, 400 mM KF (Sigma), 0.5 mM CHAPS (Sigma), and 0.05% BSA (Sigma) in a ﬁnal volume of 100 μL. BRD4(1) (100 nM) protein domain was mixed with 200 nM of the biotin-labelled histone peptides and incubated for 30 min at room temperature. Molecules were prepared in 250 mM HEPES, pH 7.4, 250 mM NaCl, and 20% DMSO at a single concentration to give a ﬁnal concentration of 50 μM 1% DMSO in a total well volume of 100 μL and incubated for 1 h. Molecules showing inhibition were then screened in duplicate at several serial dilutions. Inhibition (%) at 50 μM was calculated with […]
where the negative control was run without BRD4(1) and inhibitor and positive control, without inhibitor to give the bottom signal and top signal, respectively. The protein−peptide complexes at equilibrium were then detected with 2 nM Eu3+ cryptate-conjugated streptavidin (CisBio) and 10 nM anti-his6-XL665 (CisBio). Titration of a known inhibitor ((+)-JQ1) was used as the control for each experiment. IC50 values were calculated by plotting the log [competitor/inhibitor] versus the mean normalised response data from a single experiment measured in duplicate and ﬁtting it to a four-parameter equation with variable Hill slope, using the GraphPad Prism software: […]
The plates were measured in a CLARIOStar reader (BMG Labtech) using the homogeneous time-resolved ﬂuorescence module (excitation, 337 nm with 200 ﬂashes; emission, 620 and 665 nm). The 665 nm/620 nm ratios were converted to % normalised TR-FRET ratio = top ratio signal as 100% and […]
bottom ratio signal as 0% to normalise experiments performed at diﬀerent days. Dose−response […]
2. Data Collection and Structure Solution.
X-ray diffraction data were collected on beamlines I03 and I04-1 at the Diamond Light Source. Data were integrated with XDS[27] and scaled with AIMLESS[28] as part of the XIA2 and autoPROC auto-processing pipelines.[29,30] Initial refinement and map calculation was carried out with DIMPLE[31] using a ligand-free version of BRD4(1) (PDB 3MXF[25]) as starting model. Ligand restraints were generated with ACEDRG[32] and GRADE.[33] Refinement and model building was performed with REFMAC[34] and COOT,[35] respectively. Structure validation was performed with MolProbity.[36] Final models and structure factors have been deposited with PDB accession codes 9QOB and 9QNV. Data […]
1) Protein and Ligand Preparation
Ligand 1 was co-crystallized in the previous study[9] with PDB code 6ZF9. The ligand pose was extracted from the PDB and missing hydrogens were added with MOE.[37] […]

PDE4D [1] = tested on: PDE4D; set-up: method as in PMID 15685167; settings: with the phenyl ring; the analogue without it has 82 µM; read-out: affinity for PDE4D (IC50); cited from earlier work
PDE4D [2] = assay: PDE4D inhibition (literature IC50); format: biochemical; settings: gain from the phenyl ring of 3DE (82 µM to 270 nM)

SMILES	loss of efficacy/affinity with respect to 1 (BRD4(1))	IC50 (BRD4(1))	TR-FRET IC50 (fold change) (BRD4(1))	IC50 (PDE4D [1])	ΔΔG bind (PDE4D [2])
Cc1nnc2scc(-c3ccccc3)n12 [Compound 2]	2 fold	54 µM	2 x		
COCc1nnc2scc(-c3ccccc3)n12 [Compound 3]	3 fold	85 µM	3.3 x		
OCc1nnc2scc(-c3ccccc3)n12 [Compound 4]	2.5 fold	65 µM	2.5 x		
CCOC(=O)c1c(C)nn(-c2ccccc2)c1C [Compound 3DE]				0.27 µM	3.4 kcal/mol
